Measured values: paper PMC7433010, “Exploration of multi‐target effects of 3‐benzoyl‐5‐hydroxychromen‐2‐one in Alzheimer’s disease cell and mouse models” (Aging Cell, 2020)

Legend:
[1] = test system: ∆K280 TauRD‐DsRed‐expressing SH‐SY5Y cells; assay: Neurite outgrowth analysis in ∆K280 TauRD‐DsRed SH‐SY5Y cells; type: cell-based, human; conditions: 1 µM
Experimental: On day 1, ∆K280 TauRD-DsRed-expressing SH-SY5Y cells were seeded on a 24-well plate in a density of 3 × 10^4 cells/well, with 10 µM retinoic acid (Sigma-Aldrich) added to induce neuronal differentiation. On the second day, the cells were treated with licochalcone A (1 µM), LM-031 (1 µM), or congo red (10 µM) for 8 h and ∆K280 TauRD-DsRed expression was induced as described. After seven days, the cells were washed with phosphate-buffered saline (PBS) and fixed in 4% paraformaldehyde in PBS for 15 min. After permeabilized with 0.1% Triton X-100 in PBS for 10 min and blocked by 3% BSA in PBS for 20 min, cells were stained with primary neuronal class III β-tubulin (TUBB3) antibody (1:1000; Covance, Princeton, NJ, USA) at 4°C overnight and secondary anti-rabbit Alexa Fluor ®555 antibody (1:1000; Invitrogen) at room temperature for 3 h. After nuclei were stained with DAPI for 30 min, neuronal images were captured using the high-content imaging system as described and analyzed using the Neurite Outgrowth Application Module (Molecular Devices).
To knock down CREB expression in ∆K280 TauRD-DsRed SH-SY5Y cells, lentiviral short hairpin RNA (shRNA) targeting CREB (TRCN0000226466), NRF2 (TRCN0000007558), and a negative control scrambled (TRC2.Void) were obtained from National RNAi Core Facility, IMB/GRC, Academia Sinica, Taipei, Taiwan. On day 1, cells were plated on 6-well plates (for protein analysis) or 24-well plates (for neurite outgrowth analysis) in the presence of retinoic acid as described. On the second day, the cells were infected with lentivirus (multiplicity of infection: 3) in medium with polybrene (8 µg/mL; Sigma-Aldrich). On day 3, the culture medium was changed and the cells were pretreated with LM-031 (1 µM) for 8 h, followed by induction of ∆K280 TauRD-DsRed expression. On day 9, the cells were collected for NRF2, CREB, pCREB, and cleaved CASP3 protein analysis or analyzed for neurite outgrowth as described.

ΔK280 TauRD‐DsRed = molecular target: T1, ΔK280 TauRD‐DsRed (Homo sapiens, UniProt P10636, DEL597-597); assay: ∆K280 TauRD‐DsRed fluorescence assay (Tau misfolding) in 293 cells; type: cell-based; conditions: 3 days
T1 construct: containing residues 244–372 of the full‐length 4R2N Tau441; expressed in transfected cells; host or cells: Tet-On 293 cells, doxycycline-induced (pcDNA5/FRT/TO/TauRD-DsRed)
T1 sequence (P10636 with tags, fused parts or gaps isoform P10636-8 DEL280-280): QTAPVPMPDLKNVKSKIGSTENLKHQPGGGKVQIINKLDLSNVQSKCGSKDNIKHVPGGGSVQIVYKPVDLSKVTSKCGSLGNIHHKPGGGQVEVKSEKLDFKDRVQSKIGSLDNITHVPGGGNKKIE
Text: In ∆K280 TauRD‐DsRed 293 cells, a proaggregant (ΔK280) Tau repeat domain (TauRD) containing residues 244–372 of the full‐length 4R2N Tau441 was fused in‐frame with DsRed fluorophore. Compared to the wild‐type TauRD, the poorly folded ΔK280 TauRD formed aggregates, which adversely affected the folding of fused DsRed and thus decreased DsRed fluorescence, as also evidenced by increase in thioflavin S fluorescence emission (Chang et al., 2017). Thioflavin S is a reporter dye for studies of Tau toxicity and pharmacologic prevention in cell model of tauopathy (Pickhardt et al., 2017). It binds to amyloid fibrils but not monomers and gives a distinct increase in fluorescence emission. Inhibition of Tau aggregation may improve DsRed misfolding, leading to increased fluorescence in ΔK280 TauRD‐DsRed‐expressing cells. […] In the following experiments, DsRed fluorescence was measured in wells containing at least 80% viable cells. […]
DsRed fluorescence of proaggregant ∆K280 TauRD-DsRed 293 cells was evaluated to reflect Tau aggregation. […] Thioflavin S images (FITC 543 nm excitation and 593 nm emission) were captured and analyzed as described. In general, 2 × 10^4 cells in each biological replicate were analyzed.
Figure S2. ΔK280 TauRD-DsRed 293 cells. […] DsRed/thioﬂavin S fluorescence, ROS, and caspase 3 activity were assessed on day 5. […] (c) Dose response curves of LM-031 based on DsRed fluorescence measurement. […]

**Q.** With `O=C(c1ccccc1)c1cc2c(O)cccc2oc1=O` [LM‐031, 3‐benzoyl‐5‐hydroxychromen‐2‐one] as the molecule, how does the neurite length ([1]; CREB‐specific shRNA‐infected cells, untreated 46 µm) read?
**A.** 51 µm

**Q.** What about the neurite length ([1]; NRF2‐specific shRNA‐infected cells, untreated 42 µm) of the same molecule?
**A.** 46 µm

**Q.** And the neurite length ([1]; scrambled shRNA‐infected cells, untreated 48 µm)?
**A.** 53 µm

**Q.** For `Nc1c(/N=N/c2ccc(-c3ccc(/N=N/c4cc(S(=O)(=O)O)c5ccccc5c4N)cc3)cc2)cc(S(=O)(=O)O)c2ccccc12` [congo red, reference compound], which “∆K280 TauRD‐DsRed fluorescence” value (ΔK280 TauRD‐DsRed; 10 µM, no treatment = 100%) is on record?
**A.** 108%

**Q.** `C=CC(C)(C)c1cc(/C=C/C(=O)c2ccc(O)cc2)c(OC)cc1O` [licochalcone A, reference compound] was tested. Which “∆K280 TauRD‐DsRed fluorescence” value (ΔK280 TauRD‐DsRed; 1 µM, untreated cells = 100%) did it give?
**A.** 105%
